Structures can show the parent of a compound that is named as a salt.
These compounds were tested on LP-1 cell line (assay: Cell-based pERK ELISA method, LP-1 cells). Details: Homo sapiens, LP-1, read-out: IC50 less than 1 μM or at least 50% inhibition at a concentration of 1 μM, LP-1 pERK ELISA.
Description: LP-1 or JIM-1 multiple myeloma cells were seeded in 96 well plates at 1×10^6 cells/ml in 200 ul per well in serum free media. […] Cells were incubated for 16 h at 37° C. prior to the addition of a test compound for 30 minutes. Test compounds were administered at a 0.1% final DMSO concentration. […] ELISA plates and standards were prepared according o the standard DuoSet protocols and the relative amounts of pERK to total ERK in each sample calculated according to the standard curve.
In particular, compounds of the invention were tested against the LP-1 cell line (DSMZ no.: ACC 41) derived from human multiple myeloma.

IC50, < 1000 nM:
COC1CCCN(c2ccn3c(-c4cccc(NC(=O)NCC(F)(F)F)c4)cnc3c2)C1 (racemic) [Example 203, (±)-1-{3-[7-(3-Methoxy-piperidin-1-yl)-imidazo[1,2-a]pyridin-3-yl]-phenyl}-3-(2,2,2-trifluoro-ethyl)-urea]
CC(=O)Nc1cccc(-c2cnc3cc(-c4ccccc4)ccn23)c1 [Example 2, N-[3-(7-Phenyl-imidazo[1,2-a]pyridin-3-yl)-phenyl]-acetamide hydro-chloride salt]
CC(=O)Nc1cccc(-c2cnc3cc(-c4ccc(N5CCOCC5)cc4)ccn23)c1 [Example 5, N-{3-[7-(4-Morpholin-4-yl-phenyl)-imidazo[1,2-a]pyridin-3-yl]-phenyl}-acetamide]
CC(=O)Nc1cccc(-c2cnc3cc(-c4ccncc4)ccn23)c1 [Example 6, N-[3-(7-Pyridin-4-yl-imidazo[1,2-a]pyridin-3-yl)-phenyl]-acetamide]
CC(=O)Nc1cccc(-c2cnc3cc(-c4ccc(F)cc4)ccn23)c1 [Example 7, N-{3-[7-(4-Fluoro-phenyl)-imidazo[1,2-a]pyridin-3-yl]-phenyl}-acetamide]
CC(=O)Nc1cccc(-c2cnc3cc(-c4cccc(CO)c4)ccn23)c1 [Example 8, N-{3-[7-(3-Hydroxymeth-yl-phenyl)-imidazo[1,2-a]pyridin-3-yl]-phenyl}-acetamide]
CC(=O)Nc1cccc(-c2cnc3cc(-c4cccc(CN5CCOCC5)c4)ccn23)c1 [Example 9, N-{3-[7-(3-Morpholin-4-ylmethyl-phenyl)-imidazo[1,2-a]pyridin-3-yl]-phenyl}-acetamide]
CC(=O)Nc1cccc(-c2cnc3cc(-c4ccc(CN5CCOCC5)cc4)ccn23)c1 [Example 10, N-{3-[7-(4-Morpholin-4-ylmethyl-phenyl)-imidazo[1,2-a]pyridin-3-yl]-phenyl}-acetamide hydro-chloride salt]
CC(=O)Nc1cccc(-c2cnc3cc(-c4cccc(CC(=O)O)c4)ccn23)c1 [Example 11, {3-[3-(3-Acetylamino-phenyl)-imidazo[1,2-a]pyridin-7-yl]-phenyl}-acetic acid]
CCNC(=O)Nc1cccc(-c2cnc3cc(-c4ccc(F)cc4)ccn23)c1 [Example 15, 1-Ethyl-3-{3-[7-(4-fluoro-phenyl)-imidazo[1,2-a]pyridin-3-yl]-phenyl}-urea formate salt]
COC(=O)Nc1cccc(-c2cnc3cc(-c4ccc(F)cc4)ccn23)c1 [Example 16, {3-[7-(4-Fluoro-phenyl)-imidazo[1,2-a]pyridin-3-yl]-phenyl}-carbamic acid methyl ester formate salt]
CC(=O)Nc1cc(C#N)cc(-c2cnc3cc(-c4cccc(CN5CCOCC5)c4)ccn23)c1 [Example 28, N-{3-Cyano-5-[7-(3-morpholin-4-ylmethyl-phenyl)-imidazo[1,2-a]pyridin-3-yl]-phenyl}-acetamide]
CCNC(=S)Nc1cccc(-c2cnc3cc(-c4cccc(CN5CCN(C)CC5)c4)ccn23)c1 [Example 29, 1-Ethyl-3-(3-{7-[3-(4-methyl-piperazin-1-ylmethyl)-phenyl]-imidazo[1,2-a]pyridin-3-yl}-phenyl)-thiourea]
CCNC(=O)Nc1cccc(-c2cnc3cc(-c4cccc(CN5CCCCC5)c4)ccn23)c1 [Example 35, 1-Ethyl-3-{3-[7-(3-piperidin-1-ylmethyl-phenyl)-imidazo[1,2-a]pyridin-3-yl]-phenyl}-urea]
CCNC(=O)Nc1cccc(-c2cnc3cc(-c4cccc(C(=O)N5CCOCC5)c4)ccn23)c1 [Example 36, 1-Ethyl-3-(3-{7-[3-(morpholine-4-carbonyl)-phenyl]-imidazo[1,2-a]pyridin-3-yl}-phenyl)-urea]
CCNC(=O)Nc1cccc(-c2cnc3cc(-c4ccc(C(C)(C)C(=O)OC)cc4)ccn23)c1 [Example 39, 2-(4-{3-[3-(3-Ethyl-ureido)-phenyl]-imidazo[1,2-a]pyridin-7-yl}-phenyl)-2-methyl-propionic acid methyl ester]

From patent US8895745B2, “Bicyclic heterocyclic compounds as FGFR inhibitors” (Astex Therapeutics Limited, priority 2006, dated 2014)
